Measurements reported in patent publication US20230181535A1, “UBIQUITIN-LIGASE INHIBITORS FOR THE TREATMENT OF CANCER” (FUNDACIÓN PROFESOR NOVOA SANTOS, priority 2020, published 2023).
Values joined by “and” are separate entries in the source; they are usually repeats but may differ in a detail not shown here. Equal entries are not always repeated. “Also recorded” adds a separate entry of the source.

Experiments:
[1] = tested on: mouse cryopreserved hepatocytes; assay: Metabolite profiling in mouse cryopreserved hepatocytes; assay type: in vitro ADME; conditions: for Area percentage in sample, 0 minute control / Area percentage in sample, 10 minute sample / Area percentage in sample, 20 minute sample / Absolute area in sample, 0 minute control / Absolute area in sample, 10 minute sample / Absolute area in sample, 20 minute sample: mouse hepatocyte samples; for Absolute area in sample, 0 minute control / Absolute area in sample, 10 minute sample / Absolute area in sample, 20 minute sample: XIC area
Description: (§1) Test compound (final substrate concentration 3 μM; final DMSO concentration 0.25%) were pre-incubated at 37° C., prior to the addition of a suspension of cryopreserved hepatocytes (final cell density 0.5×10^6 viable cells/mL in Williams E media supplemented with 2 mM L glutamine and 25 mM HEPES) to initiate the reaction. The reactions were stopped with acetonitrile containing internal standard at the appropriate time points ([…]). The termination plates were centrifuged at 2500 rpm at 4° C. for 30 minute to precipitate the protein. Following the hepatocyte stability assays, the samples were utilized for metabolite profiling. Hepatocyte stability in mouse and human was performed by using the incubation of tested compound (3 μM) with cryopreserved hepatocytes in suspension. Samples were removed at 6 time points over the course of a 60 min experiment and remaining test compound at each time point was analysed by using LC-MS/MS. Then, data was analysed and an intrinsic clearance (CLint) with standard error and half-life (t½) reported.
The samples from the hepatocyte stability assay were utilized for metabolite profiling. The 10 and 20 minute samples were compared to the 0 minute control sample to identified the metabolites formed. […] The areas and percentages reported for the parent and metabolites have been calculated using the XIC data; it has been assumed that each metabolite has the same ionization efficiency and that the sensitivity of the metabolite has not been affected by the biotransformation. […] For accuracy, a ppm error of less than 5 is desirable; when the response for a metabolite observed is low the ppm error maybe greater than 5. Where a metabolite has been referred to as a potential oxidation it can refer to a potential hydroxylation, epoxidation or oxide formation. Representative collision induced dissociation (CID) mass spectra were obtained for the metabolites found. Structural elucidation was then performed on the metabolite observed. The data are processed using Metabolynx XS (Waters Ltd). When the compound structure has been provided, the data is processed using mass defect filtering1 with the dealkylation tool2; if the structure is not provided then mass defect, filtering alone is used. […] The de-alkylation tool is used in addition to the mass defect filtering to take into account that when the molecule cleaves metabolically e.g. at an amine group, the mass defect may change. Following this initial processing, the data is compared to the control sample to determine whether a series of expected metabolites are observed. Finally, the same data set is processed, using 1 a.m.u. windows across the whole data acquisition range to look for non-predicted or unexpected metabolites. After the automated Metabolynx XS processing, the data are reviewed to confirm the validity of the detected metabolites and to ensure correct assignment of the metabolite observed. The elemental formula for the observed ion and compound is reported, along with the error in parts per million (ppm) for the measured ion compared to the theoretical mass of the ion. […] Therefore, structures are depicted in Markush format3 with the shaded area showing potential sites of modification. Hepatocyte stability, metabolic profiling and test compound analysis was performed by Cyprotex Discovery.

[2] = molecular target: T1, E3 ubiquitin-ligase Hakai (Mus musculus, UniProt Q9JIY2); assay: In vivo Hakai-dependent ubiquitination assay in 293T cells; assay type: cell-based; conditions: vs DMSO
T1 construct: expressed in transfected cells; host or cells: HEK293T
T1 sequence (Q9JIY2 1-491): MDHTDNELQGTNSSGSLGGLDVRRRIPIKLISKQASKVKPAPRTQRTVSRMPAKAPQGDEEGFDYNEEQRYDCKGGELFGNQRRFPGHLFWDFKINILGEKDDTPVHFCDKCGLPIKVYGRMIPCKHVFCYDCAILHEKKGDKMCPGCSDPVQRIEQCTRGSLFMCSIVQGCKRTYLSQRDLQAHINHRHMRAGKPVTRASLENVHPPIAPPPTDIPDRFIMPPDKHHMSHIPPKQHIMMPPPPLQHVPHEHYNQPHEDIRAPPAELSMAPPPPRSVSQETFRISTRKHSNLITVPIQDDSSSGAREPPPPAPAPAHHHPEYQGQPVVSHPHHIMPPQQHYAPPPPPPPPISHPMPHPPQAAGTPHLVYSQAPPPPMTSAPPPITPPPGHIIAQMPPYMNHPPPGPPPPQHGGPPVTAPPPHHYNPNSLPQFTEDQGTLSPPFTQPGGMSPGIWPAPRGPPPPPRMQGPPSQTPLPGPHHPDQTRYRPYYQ
Description: For ubiquitination assays, 750.000 HEK293T cells were seeded in 6-well cell culture plates and after 24 h were transfected with 0.25 μg Src, 0.75 μg Flag-Hakai, and 0.5 μg HA-ubiquitin with Lipofectamin 2000 (Invitrogen, UK). Six hours after transfection cells were treated with indicated concentrations of Hakin-1, Hakin-5 or the rest of the compounds tested for 36 h. Whole cell extracts were obtained in lysis buffer (20 mM Tris-HCl pH 7.5, 150 mM NaCl and 1% Triton X-100) containing 10 μg/ml leupeptin, 10 μg/ml aprotinin and 1 mM phenylmethanesulphonyl fluoride (PMSF), supplemented with 10 mM N-ethylmaleimide. Cells were harvested and subjected to western blotting using anti-HA antibody to detect ubiquitination.

[3] = tested on: HT29 cell line; assay: Invasion assay, HT29 (dose/response); assay type: cell-based, human; conditions: for cell invasion: treated 48 h, 1 μM, 10 μM, 50 μM, vs DMSO
Description: [The procedure below names another cell line; the source lists this cell line under the same test.] For invasion assays, cells were treated with Hakin-1 or DMSO as vehicle for 48 h using 1% FBS during the last 24 hours. 3×10^5 MDCK, MDCK-Hakai or LoVo cells were seeded in a cell invasion chamber (Cell invasion assay kit, Chemicon International) containing medium with 2% FBS. After 72 hours for MDCK and MDCK-Hakai Invasive and 16 h for LoVo cells, invasive cells invaded that reach the lower chamber containing 30% FBS were fixed and stained with crystal violet (Sigma Aldrich, St Louis, Mo.) following the manufacturer's specifications. For migration assays, HT29 cells were cultured with Hakin-1 or DMSO as vehicle for 48 h, using medium without serum the last 24 h. In the cell migration chamber were seeded 3×10^5 HT29 cells (Cell migration kit, Millipore, Bedford, Mass.) containing medium without serum. After 16 h, migrated cells in the lower chamber containing serum with 30% FBS were stained with crystal violet and counted following the manufacturer's specifications. For both invasion and migration assays cells were counted in five fields photographed with an Olympus microscope using a 20× objective, experiments were performed in triplicates for each condition and the assays were repeated at least three times. Results are expressed as mean±SD.

[4] = tested on: human cryopreserved hepatocytes; assay: Hepatocyte stability, human; assay type: in vitro ADME; conditions: 3 μM
Description: as §1

Structure (SMILES) | found in hepatocyte stability assay samples (Mouse) [1] | Area percentage in sample, 0 minute control [1] | Area percentage in sample, 10 minute sample [1] [%] | Area percentage in sample, 20 minute sample [1] [%] | Absolute area in sample, 0 minute control [1] | Absolute area in sample, 10 minute sample [1] | Absolute area in sample, 20 minute sample [1] | Hakai protein levels ([2]; 293T cells transfected with Src, Flag-Hakai and HA-ubiquitin) | ubiquitination mediated by Hakai ([2]; 293T cells transfected with Src, Flag-Hakai and HA-ubiquitin, western blotting anti-HA) | cell invasion [3] | compound remaining after 60 min [4] | polarity compared to parent (LCMS) ([1]; metabolite from incubating compound #1 with mouse hepatocytes) | Hakai-induced ubiquitination ([2]; HEK293T cells transfected with Hakai and ubiquitin) | IC50 ([3]; Homo sapiens, HT-29, treated 48 h, read-out: concentration at which 50% inhibition of invasion was achieved) [nM]
O=C(O)c1ccc(-n2nnnc2SCC(=O)c2ccc([N+](=O)[O-])cc2)cc1 [Hakin-1, 4-(5-[2-(4-nitrophenyl)-2-oxoethyl]thiol-1H-tetrazol-1-yl)benzoic acid] | ✓ | 97.2% | 26.2 | 5.99 | 43574 | 14090 | 2877 | no effect was seen in Hakai protein levels; also recorded: without affecting Hakai protein levels | strongly reduces the ubiquitination mediated by Hakai in a doses dependent-manner; also recorded: specific inhibitor for Hakai-mediated ubiquitination | reduce cell invasion | 77.3% | – | – | –
O=C(O)c1ccc(-n2nnnc2SCC(O)c2ccc([N+](=O)[O-])cc2)cc1 (centres unmarked) [MKH1] | ✓ | 2.72% and 2.76% | 73.8 | 94 | 1235 | 39618 | 45169 | – | – | reduce cell invasion | 95%-100% | more polar than the parent | reduced ubiquitination at 20 μM and 100 μM | ~1000
